“And” between values parts separate entries of the source, which are not always exact repeats. Identical values can stand only once. Like-named read-outs stand apart in the source and are kept apart here.
Key:
[1] = cited from earlier work; for Intracellular TFV-DP levels, higher: than levels without boosting
[2] = cited from earlier work
[3] = MSM on TAF/FTC/COBI/EVG versus TDF/FTC; cited from earlier work
[4] = TFV and FTC concentrations in participant hair samples by LC/MS/MS; type: in vivo, human; conditions: for Difference of average hair concentration, TAF versus TDF: those on TAF relative to those on TDF
[5] = Stability of TFV and FTC in stock solutions, processed samples and hair; type: physicochemical; conditions: for Stability in processed samples: a week in a refrigerator at 4°C; for Time stable in hair samples: room temperature, deviation less than ±15%
[6] = cited from earlier work; remark: listed apart in the source
[7] = TDF/FTC to HIV-noninfected volunteers, directly-observed, 7 days a week; cited from earlier work
[8] = Plasma pharmacokinetics of TFV after TDF or TAF; type: in vivo, human; conditions: from ref 75 and ref 76
[9] = 6 participants on TAF/FTC-based ART
[10] = 10 participants on TDF/FTC-based ART
[11] = TAF-based ART, with booster (COBI or RTV)
[12] = TDF-based ART, not receiving boosters
[13] = TDF-based ART, receiving boosters (COBI or RTV)
[14] = average of original and repeated, one line per patient
[15] = both TDF- and TAF-containing ART, not on booster drugs
[16] = both TDF- and TAF-containing ART, on concomitant boosters (COBI or RTV)
[17] = 200 μg/ml in 50% MeOH, at least 6 h at room temperature
[18] = TAF-based versus TDF-based regimen with darunavir/COBI/FTC
[19] = plasma, TAF (8 mg) compared with TDF (300 mg)
[20] = plasma, TAF (25 mg) compared with TDF (300 mg)
[21] = plasma, from TAF with darunavir/COBI/FTC
[22] = plasma, from TDF with darunavir/COBI/FTC

Row | Compound | acidic pKa [2] | Average hair concentration [4, 9] | Average hair concentration [4, 10] | Hair concentration [4, 11] | Hair concentration ([4]; TAF-based ART, without booster) | Hair concentration [4, 12] | Hair concentration ([4]; TDF-based ART, receiving COBI) | Hair concentration ([4]; TDF-based ART, receiving RTV) | Hair concentration [4, 13] | Hair concentration [4, 15] | Hair concentration [4, 16] | Difference of average hair concentration, TAF versus TDF [4] | Stock solution stability [5, 17] | Stability in processed samples [5] | Stock solution stability ([5]; at least 1 year at 4°C) | Time stable in hair samples [5] | further results
1 | CC(Cn1cnc2c(N)ncnc21)OCP(=O)(O)OP(=O)(O)OP(=O)(O)O (stereo in doubt) [TFV-DP, tenofovir diphosphate] | – | – | – | – | – | – | – | – | – | – | – | – | – | – | – | – | Intracellular TFV-DP levels, higher ([1]; EVG/COBI/TAF/FTC): 5.3 fold; AUC of TFV-DP in PBMCs, higher than on TDF ([1]; TAF 8 mg versus TDF): 16.7%; AUC of TFV-DP in PBMCs, higher than on TDF ([1]; TAF 25 mg versus TDF): 613%; Intracellular TFV-DP levels, higher ([1]; darunavir/COBI/TAF/FTC): 652%
2 | Nc1nc(=O)n([C@@H]2CS[C@H](CO)O2)cc1F [FTC, emtricitabine] | 13.83 | 1.04 ± 0.83 ng/mg hair and 1.04 ng/mg hair | 0.846 ± 0.659 ng/mg hair and 0.846 ng/mg hair | 0.705 ± 0.233 ng/mg hair | 1.37 ± 1.16 ng/mg hair | 0.428 ± 0.343 ng/mg hair | 1.26 ± 0.59 ng/mg hair | 0.851 ± 0.807 ng/mg hair | 1.03 ± 0.70 ng/mg hair | 0.898 ± 0.925 ng/mg hair | 0.930 ± 0.601 ng/mg hair | 22.9% | > 95.0% | > 95.0% | > 95.0% | at least 18 months | basic pKa [2]: 2.4; Median urine FTC concentrations between regimens [3]: not different; FTC normalized average concentration, Average concentration [4, 14]: 0.988 ng/mg hair and 2.76 ng/mg hair and 1.05 ng/mg hair and 0.412 ng/mg hair and 1.86 ng/mg hair and 0.146 ng/mg hair and 0.840 ng/mg hair and 0.348 ng/mg hair and 0.694 ng/mg hair and 0.502 ng/mg hair
3 | Nc1[15n][13c](=O)[15n]([C@@H]2CS[C@H](CO)O2)cc1F [FTC-^13C,^15N2, emtricitabine-^13C,^15N2] | – | – | – | – | – | – | – | – | – | – | – | – | > 95.0% | – | – | – | –
4 | C[C@H](Cn1cnc2c(N)ncnc21)OCP(=O)(O)O [TFV, Tenofovir] | 1.61 | 0.0379 ± 0.0139 ng/mg hair and 0.0379 ng/mg hair | 0.0553 ± 0.0318 ng/mg hair and 0.0553 ng/mg hair | 0.0389 ± 0.0117 ng/mg hair | 0.0370 ± 0.0185 ng/mg hair | 0.0483 ± 0.0327 ng/mg hair | 0.0844 ± 0.0357 ng/mg hair | 0.0388 ± 0.0146 ng/mg hair | 0.0584 ± 0.0336 ng/mg hair | 0.0426 ± 0.0246 ng/mg hair | 0.0525 ± 0.0295 ng/mg hair | −31.5% | > 95.0% | > 95.0% | > 95.0% | at least 18 months | intracellular TFV concentration, increase ([1]; after switching from EVG/COBI/TDF/FTC to EVG/COBI/TAF/FTC): 141%; plasma Cmax, lower ([6]; 25 mg TAF compared with 300 mg TDF): 17 times; plasma exposure of TFV, lower ([6]; EVG/COBI/TAF/FTC compared to EVG/COBI/TDF/FTC): 91%; TFV concentrations in the plasma with TAF lower than with TDF ([6]; TAF versus TDF): 4 fold; TFV exposure in plasma, decrease ([6]; TAF-based compared with TDF-based treatment): approximately 90%; AUC of TFV, decrease [6, 18]: 90.9%; Cmax of TFV, decrease [6, 18]: 95.5%; AUC of TFV, decrease [6, 19]: 96.6%; Cmax of TFV, decrease [6, 19]: 98.3%; AUC of TFV, decrease [6, 20]: 86.0%; Cmax of TFV, decrease [6, 20]: 93.6%; AUC of TFV [6, 21]: 339 ng·h/mL; Cmax of TFV [6, 21]: 18.8 ng/mL; AUC of TFV [6, 22]: 3737 ng·h/mL; Cmax of TFV [6, 22]: 413 ng/mL; Median urine TFV concentrations, lower on TAF-based regimen than on TDF [3]: approximately 14 times; TFV normalized average concentration, Average concentration [4, 14]: 0.0500 ng/mg hair and 0.0698 ng/mg hair and 0.0375 ng/mg hair and 0.0186 ng/mg hair and 0.0973 ng/mg hair and 0.0289 ng/mg hair and 0.0850 ng/mg hair and 0.0304 ng/mg hair and 0.0274 ng/mg hair and 0.0468 ng/mg hair; median TFV hair concentration [7]: 0.038 ng/mg hair; plasma AUC of TFV, boosted versus non-boosted, higher ([8]; TAF co-administrated with darunavir/COBI): approximately 5 times; plasma AUC of TFV, boosted versus non-boosted, higher ([8]; TDF co-administrated with darunavir/COBI): 1.95 times
5 | CC(Cn1cnc2c(N)ncnc21)OCP(=O)(O)O (stereo not shown) [TFV-d6, Tenofovir-d6] | – | – | – | – | – | – | – | – | – | – | – | – | > 95.0% | – | – | – | –

Reference: publication PMC9131373 (Drug testing and analysis, 2021)
